# Measurements published in a melting point compilation (Tetko et al.; mined from patent text by program, amines drawn as free bases though some values may be those of a salt).
row,SMILES,melting point
1,O=C(NN1CCOCC1)c1ccc(O)c(Br)c1,216 to 218 °C
2,CC(O)C1C(=O)N2C(C(=O)OCc3ccc([N+](=O)[O-])cc3)C(=O)CC12 (mixture of isomers),92 to 98 °C
3,CCCOc1ccc(C(=O)CBr)cc1,36 to 38 °C
4,N#CCc1ccc(NC(=O)OCc2cccnc2)cc1,157 to 162 °C
5,Cc1nn(C)c(N)c1C(=O)Nc1cccc(Cl)c1,87 to 92 °C
6,N=C(Nc1ccccc1-c1ccccc1)N1CCC(=NO)CC1,175 to 176 °C
7,CCOC(=O)CCCCCOc1cc2ccc(-c3ccc(C(=O)O)cc3)cc2cc1C12CC3CC(CC(C3)C1)C2,270 to 271 °C
8,CC(=O)c1ccc(OCCCOc2cc(N)c(C)cc2Cl)c(CCC(F)(F)F)c1O,111 to 113 °C
9,N#CN=C1CCCCN1C1=CC(CF)(CF)Oc2ccc(C(F)(F)C(F)(F)F)cc21,196 to 197 °C
10,CC1=C(C(=O)OC(C)C)C(c2cccc(Cl)c2Cl)N(C(=O)OC(C)C)C(=S)N1 (configuration not stated),179 to 181 °C
11,O=C(CCl)Nc1cscn1,115 to 119 °C
12,CCN1CCN(Cc2cc(-c3ccc4c(Nc5ccc(Cl)cc5Cl)c(C#N)cnc4c3)cs2)CC1,182 to 184 °C
13,COc1cc(CC(=O)NCCOc2ccc(C(=O)O)cc2OC)ccc1NC(=O)Nc1ccccc1C,180 to 181 °C
14,Fc1ccc2occ(CCN3CCN(c4cccc5cccnc45)CC3)c2c1,54 °C
15,COc1cccc(NS(=O)(=O)c2ccc(N3CCNC3=O)cc2)c1,179 to 181 °C
16,CC1OCC(C)n2c1nc1c(N)nc3ccccc3c12 (configuration not stated),218 to 223 °C
17,CCCCc1nc(O)c(CC(=O)OCC)c(=O)n1Cc1ccc(C(=O)OC)cc1,170 °C
18,Clc1cc(N2CCCC2)nc(N2CCNCC2)n1,77 to 92 °C
19,Cc1ccccc1-c1cccc(/C=C/C(=O)Nc2ccc(CN3CCCCC3)cc2)c1,185 to 187 °C
20,COC(=O)c1nn(-c2ccccc2F)cc(OC)c1=O,155 to 157 °C
21,NCC1Cc2cc(-c3ccc(Cl)cc3)cc(F)c2O1 (configuration not stated),> 250 °C
22,N#CCc1cnn2ccc3c(c12)CCO3,165 to 166 °C
23,CN(Cc1ccccc1)c1cc(Cl)c(C=O)c(Cl)c1,66 to 70 °C
24,C=CCNC(=O)C1CCc2cc(C3CCCCC3)ccc2O1 (configuration not stated),93 to 94 °C
25,CCC(OC(C)=O)C(C)[N+](=O)[O-] (configuration not stated),73 to 75 °C
26,CC(C)(C)c1cc(CCc2cc(F)cc(F)c2NC(=O)NCC(C)(C)c2ccc(Cl)c(Cl)c2)cc(C(C)(C)C)c1O,159 to 160 °C

row,SMILES,melting point
1,Cc1cccc(-c2[nH]c(C(C)C)nc2-c2cccc(-c3ccc(C(F)(F)F)cc3)c2)n1,91 to 93 °C
2,C/C(=N\OC(=O)CN(C)C)[C@H]1CC[C@H]2[C@@H]3CCC4=CC(=O)CC[C@]4(C)[C@H]3CC[C@]12C,129 to 131 °C
3,O=C1c2ccccc2CCC1CN1CCC2(CC1)C(=O)NCN2c1ccccc1 (configuration not stated),170 to 173 °C
4,N#Cc1c(N)cccc1[N+](=O)[O-],196 to 198 °C
5,Cc1ccc(C2SC3(CCN(CCCC(=O)c4ccc(F)cc4)CC3)c3ccccc32)cc1 (configuration not stated),134 to 135 °C
6,CCCCCCCCCCCCS(=O)(=O)N[C@H]1CCCNC(=O)C1,100 to 101 °C
7,O=S1(=O)CS(=O)(=O)OCO1,146 °C
8,CN1C(=O)COc2c(C(=O)NC3CN4CCC3CC4)cc(O)cc21 (configuration not stated),250 to 251 °C
9,CCOC(=O)c1ccc(SCCCC2CCN(c3ccc(Cl)nn3)CC2)cc1,96.3 °C
10,Cc1cc(Cn2cc(C(F)(F)C(F)(F)F)c(C(F)(F)C(F)(F)F)n2)ccc1NC(=O)c1cccc(Br)c1C(=O)N[C@@H](C)CS(C)=O (some centres not stated),127 to 129 °C
11,N#Cc1ccc(OCc2ccc(F)cc2)cc1,82 to 83 °C
12,CCOC1SCN(c2ccc(Cl)c(Cl)c2)C1=O (configuration not stated),61 to 65 °C
13,Cc1c(-c2cccc(OCc3ccccc3)c2)n(Cc2ccc(OCCN3CCCCC3)cc2)c2ccc(OCc3ccccc3)cc12,125 to 126 °C
14,COc1ccc(-c2cc(=O)c3ccc(OCCCBr)cc3o2)cc1OC,148 to 149 °C
15,O=S(=O)(NCCn1ccnc1)c1ccc(Br)cc1,165 to 167 °C
16,Cc1cnc2c(c1)CCCC2=NO,188 °C
17,Oc1ccc(-c2cc3cc(F)ccc3o2)cc1,202 to 204 °C
18,CNC(=O)OC1CCC2(CO2)C(C2(C)OC2CC=C(C)C)C1OC (configuration not stated),92 to 93 °C
19,CCN(CC)CCNc1ccc2c3c(nn2CCO)-c2c(O)ccc(O)c2C(=O)c13,231 to 234 °C
20,CC(=O)Nc1cc(Oc2c(Cl)cc(-n3ncc(=O)[nH]c3=O)cc2Cl)ccc1O,101 to 109 °C
21,CC(CCCc1ccccc1)c1cc(O)c2c(c1)N1C(=O)CCC1CC2=O (configuration not stated),127 to 130 °C
22,Clc1cc(Cl)c2c(CCBr)coc2c1,43 °C
23,COc1ccc2ncn(C3CCN(C(C)c4ccccc4)CC3)c(=O)c2c1 (configuration not stated),124 °C
24,N#Cc1cnc2c(sc3ccccc32)c1Nc1cccc(Br)c1,240 to 242 °C
25,COc1ccc(CCNC(=O)CCc2ccccc2C(=O)NCCc2ccccc2)cc1OC,122 to 123 °C
26,CC(C)COc1ccc(COc2ccc(CC(=O)O)cc2Cl)cc1,107 to 108 °C

row,SMILES,melting point
1,O=C(N[C@H]1CCOC1=O)OCc1ccccc1,129 to 130 °C
2,CCc1nn2c(N)cc(C)nc2c1S(=O)(=O)c1ccc(OC)cc1,186 to 188 °C
3,CNC(=O)Oc1ccc(C2CCC(=O)N2CCN2CCOCC2)cc1 (configuration not stated),119 to 120 °C
4,CC(C)(C(Cl)c1ccc2c(c1)OCO2)[N+](=O)[O-] (configuration not stated),63 to 66 °C
5,CCCCN(C)S(=O)(=O)C1=C(C)NC(C)=C(C(=O)OCC2CC2)C1c1cccc([N+](=O)[O-])c1 (configuration not stated),93 to 96 °C
6,N#Cc1cc(Cn2cncn2)cc(-c2ccc(OS(N)(=O)=O)cc2)c1,166 to 167 °C
7,CCOC(=O)c1cc2c(O)nncc2nc1NC(C)C,219 to 220 °C
8,Cc1cccc(Cn2c(NC3CCN(CCc4c(C)nc5ccccn5c4=O)CC3)nc3cccnc32)n1,233 °C
9,N=C(NCCOc1cccc2[nH]c3ccccc3c12)c1cccs1,180 to 181 °C
10,COc1cc(OC)c2c(c1)N(Cc1ccccn1)C(=O)C21COc2cc3c(cc21)OCCO3 (configuration not stated),187 to 188 °C
11,CCOC(=O)CCCCCSc1nnc(S)s1,79 to 80 °C
12,O=C(c1cc(N2CCCC(F)(F)C2)ccn1)N(O)Cc1ccccc1,140 to 145 °C
13,O=C1CCC(CCC(=O)OCc2ccc(Cl)cc2)N1 (configuration not stated),63 to 64 °C
14,O=c1[nH]c2c3ccccc3ccc2n(Cc2ccccc2)c1=O,308 °C
15,N#Cc1ncccc1Oc1ccccc1Cl,90 to 92 °C
16,CCNc1nc(-c2ccc(NC(=O)NCc3cccnc3)cc2)ccc1C(=O)NCCN(C(C)C)C(C)C,160 to 162 °C
17,COc1ccc(COC(=O)C2N=CSCC2(C)O)cc1 (configuration not stated),102 to 103 °C
18,CC(O)CNS(=O)(=O)c1ccc(Nc2nc(OCC3CCCCC3)c3nc[nH]c3n2)cc1 (configuration not stated),236 to 238 °C
19,O=C(Nc1c(C(O)(C(F)(F)F)C(F)(F)F)ccc2ccccc12)c1ccccc1,190 to 192 °C
20,CCCCC(C(=O)OCC)S(=O)(=O)c1ccc(OC)cc1 (configuration not stated),62 °C
21,CC(=O)c1ccc(OCC=C(C)CSCc2ccccc2)cc1,75 to 76.5 °C
22,CCCCC(OC(=O)Nc1ccc(-c2ncn(-c3ccc(OC(F)(F)F)cc3)n2)cc1)C(=O)OCC (configuration not stated),135 to 139 °C
23,CC(=S)Nc1ccc[nH]1,93 to 94 °C
24,Cc1noc(NC(=O)N2CCN(c3nccc(-c4cccc(F)c4)n3)CC2)c1C,161 to 162 °C
25,Cc1cccc(-c2ccc(OS(=O)(=O)C(F)(F)F)cc2C=O)c1,60 to 62 °C
26,CCOCc1nc2c(N)nc3ccccc3c2n1CC1(O)CCN(C)CC1,198 °C

row,SMILES,melting point
1,C=C(C)C1CCC(C)(C(=O)O)C1=C (configuration not stated),66.5 to 68 °C
2,COC(=O)COc1cccc(NC(=O)c2cc(-c3cccc(F)c3)ccc2F)c1,103 to 104 °C
3,COc1ccc(C2Nc3ccccc3C(=O)N2c2ccc(F)c(C(F)(F)F)c2)cn1 (configuration not stated),167 to 168 °C
4,Oc1ccc2c(c1)C=CC=CS2,165 to 166 °C
5,O=c1[nH]c2ncc(-c3ccncc3)nc2n1CC1CCCCC1,267 to 269 °C
6,CC(C)(Cc1ccccc1)OC(=O)Nc1ccc(-c2ncn(-c3ccc(OC(F)(F)F)cc3)n2)cc1,153 to 155 °C
7,O=C(NCCN1CCN(C(c2ccc(F)cc2)c2ccccn2)CC1)C1CSC(c2cccnc2)N1 (configuration not stated),144 to 146 °C
8,Cn1nc(-c2cc(Cl)c(F)cc2F)c(Cl)c1C(F)(F)F,50 to 51 °C
9,CSc1cccc(S(N)(=O)=O)c1,126 to 127 °C
10,Cc1ccc(Nc2cc(C)nc(-n3nc(C)cc3C)n2)cc1,135 to 138 °C
11,CC(=O)C(=Cc1cc(Cl)c(S(C)(=O)=O)c(Cl)c1)C(C)=O,134 to 136 °C
12,CC(Cn1ncc2ccc(OCc3ccccc3)cc21)O[Si](C)(C)C(C)(C)C (configuration not stated),56 to 58 °C
13,Cc1c(-c2ccccc2)nc2cc(Cl)ccc2c1C(=O)N[C@@H](C)C1CCCCC1,204 to 207 °C
14,FC(F)(F)C1(c2cc(Cl)cc(Cl)c2)CC(c2ccc(-n3cncn3)cc2)=NO1 (configuration not stated),> 250 °C
15,O=C(CCc1ccsc1)CC(=O)N1CCOCC1,81 to 84 °C
16,Cc1[nH]c(C(=O)NCCC(=O)O)c(C)c1-c1nc2ccc(C(=O)c3ccccc3)cc2[nH]1,256 to 258 °C
17,CC(NC(=O)C(CS)Cc1ccccc1)C(=O)O (configuration not stated),120 to 124 °C
18,CCCCCN(CCCCC)CCCOC(=O)c1ccc2c(c1)-c1ccc(C(=O)OCCCN(CCCCC)CCCCC)c3cccc-2c13,148 to 151 °C
19,Cc1ccc(N)cc1C(=O)NS(C)(=O)=O,174 to 176 °C
20,CCOC(=O)c1c(SCc2ccc(OC)cc2)c(CC)c2cc(Cl)ccn2c1=O,159 to 160 °C
21,COCCCCCNC(=O)C(c1ccccc1)c1ccccc1,74.2 to 75 °C
22,CCn1c2ccc(C(=O)CCCCCl)cc2c2cc(C(=O)CCCCCl)ccc21,94 to 95 °C
23,CC(=O)c1cc(S(N)(=O)=O)ccc1O,197 to 199 °C
24,Cc1cc(CNC(=O)c2nc3n(c(=O)c2O)CCN3C)ccc1F,187 to 189 °C
